The record followed here is US9125913B2, “Bcl-2-selective apoptosis-inducing agents for the treatment of cancer and immune diseases” (AbbVie Inc., priority 2008, dated 2015).

In this assay the test system is GST-Bcl-2. The assay is described as follows: TR-FRET binding assay, Bcl-2. As to conditions: TR-FRET Ki values. As to the method: Tb-anti-GST antibody was purchased from Invitrogen (Catalog No. PV4216).
Representative compounds were serially diluted in dimethyl sulfoxide (DMSO) starting at 50 μM (2× starting concentration; 10% DMSO) and 10 μL were transferred into a 384-well plate.
The samples were then mixed on a shaker for 1 minute and incubated for an additional 3 hours at room temperature. For each assay, the probe/antibody and protein/probe/antibody were included on each assay plate as negative and positive controls, respectively. Fluorescence was measured on the Envision (Perkin Elmer) using a 340/35 nm excitation filter and 520/525 (F-Bak peptide) and 495/510 nm (Tb-labeled anti-Histidine antibody) emission filters.
The inhibition constant (Ki) is the dissociation constant of an enzyme-inhibitor complex or a protein/small molecule complex, wherein the small molecule is inhibiting binding of one protein to another protein or peptide. […] Inhibition constants were determined using Wang's equation (Wang Z-X., An Exact Mathematical Expression For Describing Competitive Binding Of Two Different Ligands To A Protein Molecule. FEBS Lett. 1995, 360:111-4).
A general note: Time-resolved FRET reads energy transfer from a long-lived donor to a nearby acceptor.
With `CC1(C)CCC(CN2CCN(c3ccc(C(=O)NS(=O)(=O)c4ccc(NCCN5CCNC(=O)C5)c([N+](=O)[O-])c4)c(Oc4cccc5[nH]ccc45)c3)CC2)=C(c2ccc(Cl)cc2)C1` [EXAMPLE 280, 4-(4-{[2-(4-chlorophenyl)-4,4-dimethylcyclohex-1-en-1-yl]methyl}piperazin-1-yl)-2-(1H-indol-4-yloxy)-N-[(3-nitro-4-{[2-(3-oxopiperazin-1-yl)ethyl]amino}phenyl)sulfonyl]benzamide], the “Binding selectivity ratio (Bcl-XL Ki/Bcl-2 Ki)” value (from here on “Binding selectivity ratio”) was 1097.2. Regarding `CC1(C)CCC(CN2CCN(c3ccc(C(=O)NS(=O)(=O)c4ccc(NCC(F)F)c([N+](=O)[O-])c4)c(Oc4ccc5[nH]ccc5c4)c3)CC2)=C(c2ccc(Cl)cc2)C1` [EXAMPLE 302, 4-(4-{[2-(4-chlorophenyl)-4,4-dimethylcyclohex-1-en-1-yl]methyl}piperazin-1-yl)-N-({4-[(2,2-difluoroethyl)amino]-3-nitrophenyl}sulfonyl)-2-(1H-indol-5-yloxy)benzamide], the “Binding selectivity ratio” value is above 1309.5. For `CCN(CC)C1CCC(Nc2ccc(S(=O)(=O)NC(=O)c3ccc(N4CCN(CC5=C(c6ccc(Cl)cc6)CC(C)(C)CC5)CC4)cc3Oc3ccc4[nH]ccc4c3)cc2[N+](=O)[O-])CC1` (stereo not drawn) [EXAMPLE 201, 4-(4-{[2-(4-chlorophenyl)-4,4-dimethylcyclohex-1-en-1-yl]methyl}piperazin-1-yl)-N-[(4-{[4-(diethylamino)cyclohexyl]amino}-3-nitrophenyl)sulfonyl]-2-(1H-indol-5-yloxy)benzamide], the “Binding selectivity ratio” value turned out to be 196.6.

Regarding `CC1(C)CCC(CN2CCN(c3ccc(C(=O)NS(=O)(=O)c4ccc(S(C)(=O)=O)cc4)c(Oc4cccc5[nH]ccc45)c3)CC2)=C(c2ccc(Cl)cc2)C1` [EXAMPLE 383, 4-(4-{[2-(4-chlorophenyl)-4,4-dimethylcyclohex-1-en-1-yl]methyl}piperazin-1-yl)-2-(1H-indol-4-yloxy)-N-{[4-(methylsulfonyl)phenyl]sulfonyl}benzamide], the “Binding selectivity ratio” value is recorded as above 304.1.

Consider `CC1(C)CCC(CN2CCN(c3ccc(C(=O)NS(=O)(=O)c4ccc(NC5CCC(N6CCOCC6)CC5)c([N+](=O)[O-])c4)c(Oc4ccc5[nH]ccc5c4)c3)CC2)=C(c2ccc(Cl)cc2)C1` (stereo not drawn) [EXAMPLE 363, 4-(4-{[2-(4-chlorophenyl)-4,4-dimethylcyclohex-1-en-1-yl]methyl}piperazin-1-yl)-2-(1H-indol-5-yloxy)-N-({4-[(4-morpholin-4-ylcyclohexyl)amino]-3-nitrophenyl}sulfonyl)benzamide], for which the “Binding selectivity ratio” value is above 3670.5. With `CN(C)CCOc1ccc(-c2ccc(Cl)cc2)c(CN2CCN(c3ccc(C(=O)NS(=O)(=O)c4ccc(NN5CCN(C)CC5)c([N+](=O)[O-])c4)c(Oc4cccc5[nH]ccc45)c3)CC2)c1` [EXAMPLE 274, 4-[4-({4′-chloro-4-[2-(dimethylamino)ethoxy]-1,1′-biphenyl-2-yl}methyl)piperazin-1-yl]-2-(1H-indol-4-yloxy)-N-({4-[(4-methylpiperazin-1-yl)amino]-3-nitrophenyl}sulfonyl)benzamide], the “Binding selectivity ratio” value was 244.6. Consider `CC1(C)CCC(CN2CCN(c3ccc(C(=O)NS(=O)(=O)c4cnc(OCC5(F)CCOCC5)c(F)c4)c(Oc4cccc5[nH]cnc45)c3)CC2)=C(c2ccc(Cl)cc2)C1` [EXAMPLE 442, 2-(1H-benzimidazol-4-yloxy)-4-(4-{[2-(4-chlorophenyl)-4,4-dimethylcyclohex-1-en-1-yl]methyl}piperazin-1-yl)-N-({5-fluoro-6-[(4-fluorotetrahydro-2H-pyran-4-yl)methoxy]pyridin-3-yl}sulfonyl)benzamide], for which the “Binding selectivity ratio” value came to 3358.9. On to `CN(C)CC(=O)N1CC[C@@H](Nc2ccc(S(=O)(=O)NC(=O)c3ccc(N4CCN(CC5=C(c6ccc(Cl)cc6)CC(C)(C)CC5)CC4)cc3Oc3cccc4[nH]cnc34)cc2[N+](=O)[O-])C1` [EXAMPLE 430, 2-(1H-benzimidazol-4-yloxy)-4-(4-{[2-(4-chlorophenyl)-4,4-dimethylcyclohex-1-en-1-yl]methyl}piperazin-1-yl)-N-[(4-{[(3R)-1-(N,N-dimethylglycyl)pyrrolidin-3-yl]amino}-3-nitrophenyl)sulfonyl]benzamide], for which the “Binding selectivity ratio” value was 99.767. Turning to `CC1(C)CCC(CN2CCN(c3ccc(C(=O)NS(=O)(=O)c4ccc(NCCCN5CCNC(=O)C5)c([N+](=O)[O-])c4)c(Oc4cccc5[nH]ccc45)c3)CC2)=C(c2ccc(Cl)cc2)C1` [EXAMPLE 223, 4-(4-{[2-(4-chlorophenyl)-4,4-dimethylcyclohex-1-en-1-yl]methyl}piperazin-1-yl)-2-(1H-indol-4-yloxy)-N-[(3-nitro-4-{[3-(3-oxopiperazin-1-yl)propyl]amino}phenyl)sulfonyl]benzamide], the “Binding selectivity ratio” value is 574.1. On to `COCCOCCSc1ccc(S(=O)(=O)NC(=O)c2ccc(N3CCN(CC4=C(c5ccc(Cl)cc5)CC(C)(C)CC4)CC3)cc2Oc2ccc3[nH]ccc3c2)cc1[N+](=O)[O-]` [EXAMPLE 380, 4-(4-{[2-(4-chlorophenyl)-4,4-dimethylcyclohex-1-en-1-yl]methyl}piperazin-1-yl)-2-(1H-indol-5-yloxy)-N-[(4-{[2-(2-methoxyethoxy)ethyl]thio}-3-nitrophenyl)sulfonyl]benzamide], for which the “Binding selectivity ratio” value turned out to be 2107.3.

With `CNc1ccc(S(=O)(=O)NC(=O)c2ccc(N3CCN(CC4=C(c5ccc(Cl)cc5)CC(C)(C)CC4)CC3)cc2Oc2ccc3[nH]ccc3c2)cc1S(=O)(=O)C(F)(F)F` [EXAMPLE 328, 4-(4-{[2-(4-chlorophenyl)-4,4-dimethylcyclohex-1-en-1-yl]methyl}piperazin-1-yl)-2-(1H-indol-5-yloxy)-N-({4-(methylamino)-3-[(trifluoromethyl)sulfonyl]phenyl}sulfonyl)benzamide], the “Binding selectivity ratio” value was above 355.0. For the compound `CC1(C)CCC(CN2CCN(c3ccc(C(=O)NS(=O)(=O)c4ccc(OCC5CCOCC5)c([N+](=O)[O-])c4)c(Oc4cccc5[nH]ccc45)c3)CC2)=C(c2ccc(Cl)cc2)C1` [EXAMPLE 289, 4-(4-{[2-(4-chlorophenyl)-4,4-dimethylcyclohex-1-en-1-yl]methyl}piperazin-1-yl)-2-(1H-indol-4-yloxy)-N-{[3-nitro-4-(tetrahydro-2H-pyran-4-ylmethoxy)phenyl]sulfonyl}benzamide], the “Binding selectivity ratio” value is above 5917.7. Consider `CC1(C)CCC(CN2CCN(c3ccc(C(=O)NS(=O)(=O)c4ccc(NCCN5CCNC(=O)C5)c([N+](=O)[O-])c4)c(Oc4ccc5[nH]ccc5c4)c3)CC2)=C(c2ccc(Cl)cc2)C1` [EXAMPLE 273, 4-(4-{[2-(4-chlorophenyl)-4,4-dimethylcyclohex-1-en-1-yl]methyl}piperazin-1-yl)-2-(1H-indol-5-yloxy)-N-[(3-nitro-4-{[2-(3-oxopiperazin-1-yl)ethyl]amino}phenyl)sulfonyl]benzamide], for which the “Binding selectivity ratio” value is given as 2396.1. For the compound `O=C(NS(=O)(=O)c1ccc(NCCn2nccn2)c([N+](=O)[O-])c1)c1ccc(N2CCN(Cc3ccccc3-c3ccc(Cl)cc3)CC2)cc1Oc1ccccc1` [Example 165, 4-{4-[(4′-chloro-1,1′-biphenyl-2-yl)methyl]piperazin-1-yl}-N-[(3-nitro-4-{[2-(2H-1,2,3-triazol-2-yl)ethyl]amino}phenyl)sulfonyl]-2-phenoxybenzamide], the “Binding selectivity ratio” value is reported as 44.5. `CC1(C)CCC(CN2CCN(c3ccc(C(=O)NS(=O)(=O)c4ccc(NCC5CN(C6COC6)CCO5)c([N+](=O)[O-])c4)c(Oc4cccc5[nH]cnc45)c3)CC2)=C(c2ccc(Cl)cc2)C1` (stereo not drawn) [EXAMPLE 433, 2-(1H-benzimidazol-4-yloxy)-4-(4-{[2-(4-chlorophenyl)-4,4-dimethylcyclohex-1-en-1-yl]methyl}piperazin-1-yl)-N-[(3-nitro-4-{[(4-oxetan-3-ylmorpholin-2-yl)methyl]amino}phenyl)sulfonyl]benzamide]: the “Binding selectivity ratio” value came out at 228.55. With `CN1CC(Nc2ccc(S(=O)(=O)NC(=O)c3ccc(N4CCN(CC5=C(c6ccc(Cl)cc6)CC(C)(C)CC5)CC4)cc3Oc3ccc4[nH]ccc4c3)cc2[N+](=O)[O-])CC1=O` (stereo not drawn) [EXAMPLE 281, 4-(4-{[2-(4-chlorophenyl)-4,4-dimethylcyclohex-1-en-1-yl]methyl}piperazin-1-yl)-2-(1H-indol-5-yloxy)-N-({4-[(1-methyl-5-oxopyrrolidin-3-yl)amino]-3-nitrophenyl}sulfonyl)benzamide], the “Binding selectivity ratio” value is 1558.9. With `CC1(C)CCC(CN2CCN(c3ccc(C(=O)NS(=O)(=O)c4ccc(NCCN5CCNC5=O)c([N+](=O)[O-])c4)c(Oc4ccc5[nH]ccc5c4)c3)CC2)=C(c2ccc(Cl)cc2)C1` [EXAMPLE 268, 4-(4-{[2-(4-chlorophenyl)-4,4-dimethylcyclohex-1-en-1-yl]methyl}piperazin-1-yl)-2-(1H-indol-5-yloxy)-N-[(3-nitro-4-{[2-(2-oxoimidazolidin-1-yl)ethyl]amino}phenyl)sulfonyl]benzamide], the “Binding selectivity ratio” value came to 1563.9. With `CC1(C)CCC(CN2CCN(c3ccc(C(=O)NS(=O)(=O)c4cnc(OCC5CCC(F)(F)CC5)c(Cl)c4)c(Oc4cccc5[nH]cnc45)c3)CC2)=C(c2ccc(Cl)cc2)C1` [EXAMPLE 463, 2-(1H-benzimidazol-4-yloxy)-N-({5-chloro-6-[(4,4-difluorocyclohexyl)methoxy]pyridin-3-yl}sulfonyl)-4-(4-{[2-(4-chlorophenyl)-4,4-dimethylcyclohex-1-en-1-yl]methyl}piperazin-1-yl)benzamide], the “Binding selectivity ratio” value worked out at 6043.
